Ten compounds from patent US5872097A, “Oligopeptides with affinity to opioid receptors” (Pharmacia & Upjohn Aktiebolag, priority 1992, dated 1999) can be followed below.

Bridge positions count the residues as written; N and C are the ends. Square brackets hold non-standard residues; d marks the D form. Ends that are not written are not given here. Peptide text beside a SMILES is read from it. Dab = NCC[C@H](N)C(=O)O

One assay addresses T1, μ-receptor (Rattus norvegicus, UniProt P33535).
T1 construct: from tissue; host or cells: rat brain (homogenate / synaptic plasma membranes, whole brain without cerebellum)
The experiment in a line: (3H)-DAMGO displacement receptor assay. In kind it is binding. The following applies: LIGAND program; for IC50: displacement of (3H)-DAMGO specific binding, radioligand about 24 x 10^-10 M. Here is the method: (§1) In the experiments noted in FIGS. 3 and 4 and in Table 1 (^3 H)-(D-Ala^2,MePhe^4,Gly-ol^5)-enkephalin (DAGO or DAMGO) and (^3 H)-(D-Ala^2,D-Leu^5)-enkephalin (DADL) purchased from Amersham (Buckinghamshire, England) were used as radioligands in a binding assay performed as in Reg.
(§2) The peptides were employed for both receptor tests and bioassays on electrically stimulated guinea pig ileum strips (GPI-tests). The receptor assays were performed in the same manner as above with DAMGO as a radioligand to the μ-receptor. In the assays (^3 H)-DAMGO specific binding was displaced by the different tested substances (10^-5 M to 10^-10 M). […] Ups. […] The magnitude of activity in relation to a standard compound, normorphine was recorded.

The target in assay [1] is T2, μ-receptor ((3H)-DAGO binding site) (Rattus norvegicus, UniProt P33535).
T2 construct: from tissue; host or cells: rat brain (homogenate / synaptic plasma membranes, whole brain without cerebellum)
T2 sequence (P33535 whole entry): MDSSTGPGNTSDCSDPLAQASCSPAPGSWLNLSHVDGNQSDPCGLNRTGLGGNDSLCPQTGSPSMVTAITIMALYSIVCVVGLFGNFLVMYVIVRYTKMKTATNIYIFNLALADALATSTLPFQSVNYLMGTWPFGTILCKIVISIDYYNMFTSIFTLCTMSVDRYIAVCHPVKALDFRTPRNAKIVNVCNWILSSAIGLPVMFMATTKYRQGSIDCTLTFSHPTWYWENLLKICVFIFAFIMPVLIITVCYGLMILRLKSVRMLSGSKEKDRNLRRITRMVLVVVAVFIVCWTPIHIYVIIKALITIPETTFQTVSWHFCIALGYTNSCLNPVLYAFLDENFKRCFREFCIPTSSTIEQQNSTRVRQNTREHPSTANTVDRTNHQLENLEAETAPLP
The experiment in a line: (3H)-DAGO binding assay, rat brain homogenates. The following applies: duplicate determination, one site model, EBDA/LIGAND.
Text: as §1
(§3) In the publication β-Casomorphins and Related Peptides Ed.

Assay [2] addresses T3, δ-receptor ((3H)-DADL binding site) (Rattus norvegicus, UniProt P33533).
T3 construct: from tissue; host or cells: rat brain homogenate
The experiment in a line: (3H)-DADL binding assay, rat brain homogenates. As to conditions: duplicate determination, one site model, EBDA/LIGAND.
Text: as §1, §3

Assay [3] concerns electrically stimulated guinea pig ileum strips. As to conditions: relative to standard compound normorphine = 1. Here is the method:
as §2

T1 sequence (P33535 whole entry): as above
T3 sequence (P33533 whole entry): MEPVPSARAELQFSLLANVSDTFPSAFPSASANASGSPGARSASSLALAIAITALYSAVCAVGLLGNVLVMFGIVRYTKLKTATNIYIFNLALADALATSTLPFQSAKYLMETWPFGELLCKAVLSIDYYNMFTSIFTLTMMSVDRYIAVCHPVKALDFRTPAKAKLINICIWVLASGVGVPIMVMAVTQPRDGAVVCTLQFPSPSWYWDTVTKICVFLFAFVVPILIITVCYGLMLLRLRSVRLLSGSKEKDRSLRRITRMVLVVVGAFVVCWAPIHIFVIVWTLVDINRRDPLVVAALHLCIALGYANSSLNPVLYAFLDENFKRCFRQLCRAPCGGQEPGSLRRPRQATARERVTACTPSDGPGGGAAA

As for `CC(C)C[C@@H]1NC(=O)[C@H](Cc2ccccc2)NC(=O)[C@@H](NC(=O)[C@@H](N)Cc2ccc(O)cc2)CSSC[C@@H](C(=O)O)NC1=O` (H-YCFLC-OH; disulfide 2-5), the IC50 – broadly, the concentration needed to halve the response being measured – on μ-receptor came to 0.24 nM.

Consider `CC(C)C[C@@H]1NC(=O)[C@H](Cc2ccccc2)NC(=O)[C@@H](NC(=O)[C@@H](N)Cc2ccc(O)cc2)CCCCNC(=O)[C@H](CCC(=O)O)NC1=O` (H-YKFLE; lactam 2-C), for which the IC50 at μ-receptor came out at 0.055 nM.

In the case of `CC(C)C[C@@H]1NC(=O)[C@H](Cc2ccccc2)NC(=O)[C@@H](NC(=O)[C@@H](N)Cc2ccc(O)cc2)CCNC(=O)[C@H](CCC(=O)O)NC1=O` (H-Y[Dab]FLE; lactam 2-C (inferred); N-terminus assumed), at μ-receptor ((3H)-DAMGO binding), the “Bmax (binding capacity)” value turned out to be 18.6 pmol.

As to `CC(C)C[C@H](NC(=O)[C@H](CC(C)C)NC(=O)CNC(=O)[C@@H](N)Cc1ccc(O)cc1)C(=O)O` [Tyr--Gly--Leu--Leu, Tyr-Gly-Leu-Leu] (H-YGLL-OH), the Ki (commonly a measure of affinity in units of concentration, obtained from inhibition or displacement) in assay [1] is 32000 nM; in assay [2], 24000 nM.

As for `CC(C)C[C@H](NC(=O)[C@H](Cc1ccccc1)NC(=O)[C@@H](C)NC(=O)[C@@H](N)Cc1ccc(O)cc1)C(=O)N[C@@H](CCC(=O)O)C(=O)O` [Tyr-D-Ala-Phe-Leu-Glu] (H-Y[dA]FLE-OH), the “GPI-test relative activity normorphine = 1” value in assay [3] is listed as 0.01. Further, the IC50 on μ-receptor was determined as 0.048 nM.

Take `CC(C)C[C@H](NC(=O)[C@H](Cc1ccccc1)NC(=O)[C@@H](C)NC(=O)[C@@H](N)Cc1ccc(O)cc1)C(N)=O` [Tyr-D-Ala-Phe-Leu-NH2, reference compound] (H-Y[dA]FL-NH2): the “GPI-test relative activity normorphine = 1” value in assay [3] was determined as 0.3. The same compound returned an IC50 on μ-receptor of 0.1 nM.

In the case of `CSCC[C@H](NC(=O)[C@H](Cc1ccccc1)NC(=O)[C@@H](C)NC(=O)[C@@H](N)Cc1ccc(O)cc1)C(N)=O` [Tyr-D-Ala-Phe-Met-NH2, reference compound] (H-Y[dA]FM-NH2), in assay [3], the “GPI-test relative activity normorphine = 1” value came out at 0.5. Also, at μ-receptor, the IC50 was found to be 0.15 nM.

For the compound YPFLE [Tyr-Pro-Phe-Leu-Glu], the “GPI-test relative activity normorphine = 1” value in assay [3] is reported as 0.01. In addition, the IC50 on μ-receptor came out at 0.024 nM.

As to “YPFVE [Tyr--Pro--Phe--Val--Glu, Tyr-Pro-Phe-Val-Glu, reference compound]”, the Ki in assay [1] was found to be 8900 nM.

For the compound YSFLE-NH2 [Tyr-Ser-Phe-Leu-Glu-NH2], the IC50 at μ-receptor worked out at 2.6 nM.
